In patent US10681909B2, “Herbicidal triazoles” (FMC Corporation, priority 2014, dated 2020):

Columns and labels:
[1] = test system: morningglory; experiment: Test A postemergence; format: in vivo, Ipomoea spp.; conditions: Ipomoea, post-emergence, 240 h, 0 to 100 scale (0 no effect, 100 complete control), approx. 10 d, read-out: Plant response rating, Morningglory; for pest or weed control at 125 g/ha: 125 g ai/ha; for pest or weed control at 500 g/ha: 500 g ai/ha
Procedure, shortened: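 Plant seeds in loam soil blended with sand, then apply test chemical preemergence as a directed soil spray; in parallel, spray potted seedlings (one- to two-leaf, 2 to 10 cm) postemergence. Both treatments use a non-phytotoxic solvent mixture with surfactant.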

[2] = test system: foxtail, giant; experiment: Test C preemergence; format: in vivo, Setaria faberii; conditions: for Plant response rating (scale of 0 to 100 where 0 is no effect and 100 is complete control): Foxtail, Giant, preemergence; for Foxtail, Giant plant response rating (0 to 100): Preemergence, visual rating after 13 to 15 d
Description: (§1) Seeds of plant species selected from blackgrass (Alopecurus myosuroides), ryegrass, Italian (Italian ryegrass, Lolium multiflorum), wheat (winter wheat, Triticum aestivum), galium (catchweed bedstraw, Galium aparine), corn (Zea mays), crabgrass, large (large crabgrass, Digitaria sanguinalis), foxtail, giant, (giant foxtail, Setaria faberii), johnsongrass (Sorghum halepense), lambsquarters (Chenopodium album), morningglory (Ipomoea coccinea), nutsedge, yellow (yellow nutsedge, Cyperus esculentus), pigweed (Amaranthus retroflexus), ragweed (common ragweed, Ambrosia elatior), soybean (Glycine max), barnyardgrass (Echinochloa crus-galli), oilseed rape (Brassica napus), waterhemp (common waterhemp, Amaranthus rudis), and velvetleaf (Abutilon theophrasti) were planted into a blend of loam soil and sand and treated preemergence with test chemicals formulated in a non-phytotoxic solvent mixture which included a surfactant. At the same time, plants selected from these crop and weed species and also chickweed (common chickweed, Stellaria media), oat, wild (wild oat, Avena fatua), and kochia (Kochia scoparia), were planted in pots containing Sunshine Redi-Earth® planting medium comprising spaghnum peat moss, vermiculite, starter nutrients and dolomitic limestone and treated with postemergence applications of test chemicals formulated in the same manner. Plants ranged in height from 2 to 18 cm (1- to 4-leaf stage) for postemergence treatments. […] A dash (-) response means no test result.

[3] = test system: pigweed; experiment: Test C preemergence; format: in vivo, Amaranthus retroflexus; conditions: for Plant response rating (scale of 0 to 100 where 0 is no effect and 100 is complete control): Pigweed, preemergence; for Pigweed plant response rating (0 to 100): Preemergence, visual rating after 13 to 15 d
Description: as §1

[4] = test system: bluegrass; experiment: Test D preemergence; format: in vivo, Poa annua; conditions: scale 0 to 100
Description: (§2) Seeds of plant species selected from bluegrass (annual bluegrass, Poa annua), blackgrass (Alopecurus myosuroides), canarygrass (Phalaris minor), chickweed (common chickweed, Stellaria media), galium (catchweed bedstraw, Galium aparine), bromegrass, down (downy bromegrass, Bromus tectorum), Russian thistle (Salsola kali), field poppy (Papaver rhoeas), field violet (Viola arvensis), foxtail, green (green foxtail, Setaria viridis), deadnettle (henbit deadnettle, Lamium amplexicaule), ryegrass, Ital. (Italian ryegrass, Lolium multiflorum), kochia (Kochia scoparia), lambsquarters (Chenopodium album), oilseed rape (Brassica napus), pigweed (Amaranthus retroflexus), chamomile (scentless chamomile, Matricaria inodora), speedwell (bird's-eye speedwell, Veronica persica), barley, spring (spring barley, Hordeum vulgare), wheat, spring (spring wheat, Triticum aestivum), buckwheat, wild (wild buckwheat, Polygonum convolvulus), wild mustard (Sinapis arvensis), oat, wild (wild oat, Avena fatua), radish, wild (wild radish, Raphanus raphanistrum), […]), barley, winter (winter barley, Hordeum vulgare), and wheat, winter (winter wheat, Triticum aestivum) were planted into a silt loam soil and treated preemergence with test chemicals formulated in a non-phytotoxic solvent mixture which included a surfactant. At the same time, these species were planted in pots containing Sunshine Redi-Earth® planting medium comprising spaghnum peat moss, vermiculite, starter nutrients and dolomitic limestone and treated with postemergence applications of the test chemicals formulated in the same manner. Plants ranged in height from 2 to 18 cm (1- to 4-leaf stage). Treated plants and controls were maintained in a controlled growth environment for 14 to 21 d after which time all species were compared to controls and visually evaluated. […] A dash (-) response means no test result.

[5] = test system: lambsquarters; experiment: Test D preemergence; format: in vivo, Chenopodium album; conditions: scale 0 to 100
Description: as §2

[6] = test system: oilseed rape; experiment: Test D preemergence; format: in vivo, Brassica napus; conditions: scale 0 to 100
Description: as §2

[7] = test system: buckwheat, wild; experiment: Test D preemergence; format: in vivo, Polygonum convolvulus; conditions: scale 0 to 100
Description: as §2

[8] = test system: kochia; experiment: Test D postemergence; format: in vivo, Kochia scoparia; conditions: scale 0 to 100
Description: as §2

[9] = test system: ragweed; experiment: Test A postemergence; format: in vivo, Ambrosia elatior; conditions: 0 to 100 scale (0 no effect, 100 complete control), approx. 10 d
Description: (§3) Seeds of plant species selected from barnyardgrass (Echinochloa crus-galli), crabgrass, large (large crabgrass, Digitaria sanguinalis), kochia (Kochia scoparia), ragweed (common ragweed, Ambrosia elatior), foxtail, giant (giant foxtail, Setaria faberii), morningglory (Ipomoea spp.), pigweed (Amaranthus retroflexus), velvetleaf (Abutilon theophrasti), ryegrass, Italian (Italian ryegrass, Lolium multiflorum), wheat (Triticum aestivum), and corn (Zea mays) were planted into a blend of loam soil and sand and treated preemergence with a directed soil spray using test chemicals formulated in a non-phytotoxic solvent mixture which included a surfactant.
(§4) At the same time, plants selected from these crop and weed species and also blackgrass (Alopecurus myosuroides), and galium (catchweed bedstraw, Galium aparine), were planted in pots containing the same blend of loam soil and sand and treated with postemergence applications of test chemicals formulated in the same manner. Plants ranged in height from 2 to 10 cm and were in the one- to two-leaf stage for the postemergence treatment. Treated plants and untreated controls were maintained in a greenhouse for approximately 10 d, after which time all treated plants were compared to untreated controls and visually evaluated for injury. Plant response ratings, summarized in Table A, are based on a 0 to 100 scale where 0 is no effect and 100 is complete control. A dash (-) response means no test result.

[10] = test system: blackgrass; experiment: Test A postemergence; format: in vivo, Alopecurus myosuroides; conditions: 0 to 100 scale (0 no effect, 100 complete control), approx. 10 d
Description: as §3, §4

SMILES	pest or weed control at 125 g/ha [1]	pest or weed control at 500 g/ha [1]	Plant response rating (scale of 0 to 100 where 0 is no effect and 100 is complete control) ([2]; 125 g ai/ha)	Plant response rating (scale of 0 to 100 where 0 is no effect and 100 is complete control) ([2]; 250 g ai/ha)	Foxtail, Giant plant response rating (0 to 100) ([2]; 31 g ai/ha)	Foxtail, Giant plant response rating (0 to 100) ([2]; 62 g ai/ha)	Plant response rating (scale of 0 to 100 where 0 is no effect and 100 is complete control) ([3]; 125 g ai/ha)	Plant response rating (scale of 0 to 100 where 0 is no effect and 100 is complete control) ([3]; 250 g ai/ha)	Pigweed plant response rating (0 to 100) ([3]; 31 g ai/ha)	Pigweed plant response rating (0 to 100) ([3]; 62 g ai/ha)	Plant response rating, Ragweed ([9]; 125 g ai/ha)	Plant response rating, Blackgrass ([10]; 125 g ai/ha)	also measured
CCc1nc(-c2ccc(C(F)(F)F)cc2)nn1Cc1ccnc(C(F)(F)F)c1 [Compound 1, 4-[[5-ethyl-3-[4-(trifluoromethyl)phenyl]-1H-1,2,4-triazol-1-yl]methyl]-2-(trifluoromethyl)pyridine]	90%	100%	100	100	98	98	100	100	100	100	–	–	Plant response rating: Bluegrass ([4]; 31 g ai/ha): 10; Plant response rating: Bluegrass ([4]; 62 g ai/ha): 35; Plant response rating: Bluegrass ([4]; 125 g ai/ha): 60; Plant response rating: Bluegrass ([4]; 250 g ai/ha): 100; Plant response rating: Lambsquarters ([5]; 62 g ai/ha): 100; Plant response rating: Lambsquarters ([5]; 125 g ai/ha): 100; Plant response rating: Lambsquarters ([5]; 250 g ai/ha): 100; Plant response rating: Oilseed Rape ([6]; 62 g ai/ha): 100; Plant response rating: Oilseed Rape ([6]; 125 g ai/ha): 100; Plant response rating: Oilseed Rape ([6]; 250 g ai/ha): 100; Plant response rating: Buckwheat, Wild ([7]; 31 g ai/ha): 60; Plant response rating: Buckwheat, Wild ([7]; 62 g ai/ha): 70; Plant response rating: Buckwheat, Wild ([7]; 125 g ai/ha): 65; Plant response rating: Buckwheat, Wild ([7]; 250 g ai/ha): 100; Plant response rating: Kochia ([8]; 31 g ai/ha): 65; Plant response rating: Kochia ([8]; 62 g ai/ha): 75; Plant response rating: Kochia ([8]; 125 g ai/ha): 80; Plant response rating: Kochia ([8]; 250 g ai/ha): 80
Cn1nc(-c2ccc(F)cc2)nc1Oc1cccc(C(F)(F)F)c1 [Compound 5, 3-(4-fluorophenyl)-1-methyl-5-[3-(trifluoromethyl)phenoxy]-1H-1,2,4-triazole]	50%	100%	–	–	–	–	–	–	–	–	–	–	–
CCCc1nc(-c2ccc(F)cc2)nn1Cc1ccnc(C(F)(F)F)c1 [Compound 6, 4-[[3-(4-fluorophenyl)-5-propyl-1H-1,2,4-triazol-1-yl]methyl]-2-(trifluoromethyl)pyridine]	100%	100%	100	100	100	100	100	100	100	100	–	–	–
COc1nc(-c2ccc(F)cc2)nn1Cc1ccnc(C(F)(F)F)c1 [Compound 9, 4-[[3-(4-fluorophenyl)-5-methoxy-1H-1,2,4-triazol-1-yl]methyl]-2-(trifluoromethyl)pyridine]	90%	100%	100	100	80	100	100	98	100	100	–	–	–
Cn1nc(-c2ccc(F)cc2)nc1C(O)c1ccnc(C(F)(F)F)c1 (stereo not drawn) [Compound 14, α-[3-(4-fluorophenyl)-1-methyl-1H-1,2,4-triazol-5-yl]-2-(trifluoromethyl)-4-pyridinemethanol]	40%	80%	–	–	–	–	–	–	–	–	–	–	–
CCn1nc(-c2ccc(F)cc2)nc1C(O)c1ccnc(C(F)(F)F)c1 (stereo not drawn) [Compound 15, α-[1-Ethyl-3-(4-fluorophenyl)-1H-1,2,4-triazol-5-yl]-2-(trifluoromethyl)-4-pyridinemethanol]	0%	10%	–	–	–	–	–	–	–	–	–	–	–
CCCn1nc(-c2ccc(F)cc2)nc1Cc1ccnc(C(F)(F)F)c1 [Compound 17, 4-[[3-(4-fluorophenyl)-1-propyl-1H-1,2,4-triazol-5-yl]methyl]-2-(trifluoromethyl)pyridine]	70%	100%	–	–	–	–	–	–	–	–	–	–	–
CCn1nc(-c2ccc(F)cc2)nc1C(=O)c1ccnc(C(F)(F)F)c1 [Compound 19, [1-ethyl-3-(4-fluorophenyl)-1H-1,2,4-triazol-5-yl][2-(trifluoromethyl)-4-pyridinyl]methanone]	0%	0%	–	–	–	–	–	–	–	–	–	–	–
COc1nc(-c2ccc(C(F)(F)F)cc2)nn1Cc1ccnc(C(F)(F)F)c1 [Compound 25]	–	–	–	–	–	–	–	–	–	–	30	30	Plant response rating, Ragweed ([9]; 31 g ai/ha): 20; Plant response rating, Blackgrass ([10]; 31 g ai/ha): 10
CCOc1nc(-c2ccc(Cl)cc2)nn1Cc1ccnc(C(F)(F)F)c1 [Compound 26]	–	–	–	–	–	–	–	–	–	–	50	50	Plant response rating, Ragweed ([9]; 31 g ai/ha): 30; Plant response rating, Blackgrass ([10]; 31 g ai/ha): 30
CS(=O)(=O)c1nc(-c2ccc(F)cc2)nn1Cc1ccnc(C(F)(F)F)c1 [Compound 29, 4-[[3-(4-fluorophenyl)-5-(methylsulfonyl)-1H-1,2,4-triazole-1-yl]methyl]-2-(trifluoromethyl)pyridine]	0%	0%	–	–	–	–	–	–	–	–	–	–	–
COc1nc(-c2ccccc2)nn1Cc1ccnc(C(F)(F)F)c1 [Compound 32]	–	–	85	100	5	70	100	100	100	100	30	20	Plant response rating, Ragweed ([9]; 500 g ai/ha): 70; Plant response rating, Blackgrass ([10]; 500 g ai/ha): 50
CCCOc1nc(-c2ccccc2)nn1Cc1ccnc(C(F)(F)F)c1 [Compound 33]	–	–	–	–	–	–	–	–	–	–	30	30	Plant response rating, Ragweed ([9]; 500 g ai/ha): 50; Plant response rating, Blackgrass ([10]; 500 g ai/ha): 50
